Results on nine molecules are retold here after PubChem BioAssay (NCI).

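Test compounds were applied to cells in 96-well plates for 48 hours at 5 doses. At the GI50, growth is halved. TGI: concentration producing complete growth inhibition.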 Where a SMILES comes first, the peptide text is derived from it. [ ]: non-standard residue; d: D form. 2Nal = N[CH](Cc1ccc2ccccc2c1)C(=O)O

Test systems include CAKI-1 renal; COLO 205 colon; HCT-15 colon; LOX IMVI melanoma; M14 melanoma; MOLT-4 leukemia; RXF 393 renal; SF-268 CNS; SNB-19 CNS; SR leukemia.
What all share (assay): NCI-60 cell line screen, 48 h

`C1CCN2CC3CCCN4CCCC(C2C1)C34` (stereo not drawn): the TGI in the test with CAKI-1 renal, in the test with COLO 205 colon, with HCT-15 colon, in the test with LOX IMVI melanoma, with M14 melanoma and in the test on MOLT-4 leukemia was more than 100 µM each time. Further, the TGI with RXF 393 renal, with SF-268 CNS, with SNB-19 CNS and with SR leukemia was more than 100 µM throughout.

As for `CC(C)C(NC(=O)C(CCCCN)NC(=O)C(Cc1c[nH]c2ccccc12)NC(=O)C(Cc1ccc(O)cc1)NC(=O)C(CS)NC(=O)C(N)Cc1ccc2ccccc2c1)C(=O)NC(CS)C(=O)NC(C(N)=O)C(C)O` (stereo not drawn) (H-[2Nal]CYWKVCT-NH2; configuration not given here), the GI50 in the test with CAKI-1 renal, in the test with COLO 205 colon, with HCT-15 colon, in the test on M14 melanoma, with MOLT-4 leukemia and in the test on RXF 393 renal was more than 100 µM each time. Besides, the GI50 in the test on SR leukemia is more than 100 µM. For the same molecule, the TGI with CAKI-1 renal was more than 100 µM; in the test with COLO 205 colon it was more than 100 µM; in the test on HCT-15 colon it was more than 100 µM; in the test with LOX IMVI melanoma it was more than 12.5 µM; with M14 melanoma, more than 100 µM; in the test on MOLT-4 leukemia it was more than 100 µM. In addition, the TGI is more than 100 µM in the test on RXF 393 renal, more than 12.5 µM in the test on SF-268 CNS, more than 100 µM in the test with SNB-19 CNS and more than 100 µM in the test on SR leukemia.

In the case of `C#CCN(N=O)C(=O)NCCCC(NC(C)=O)C(=O)NCc1ccccc1` (stereo not drawn), the TGI with CAKI-1 renal, in the test with COLO 205 colon, in the test with HCT-15 colon, with LOX IMVI melanoma, in the test with M14 melanoma and in the test on MOLT-4 leukemia was more than 100 µM in each case. Also, the TGI in the test on RXF 393 renal is more than 100 µM; in the test with SF-268 CNS it was more than 100 µM; in the test on SNB-19 CNS, more than 100 µM; in the test with SR leukemia, 51 µM.

`COCOCC[C@@H]1CC=CC(NC(=O)OCc2ccccc2)C1/C=C/C(=O)CCC1OCCO1` (stereo partly drawn): the TGI is more than 100 µM with CAKI-1 renal; 37.9 µM with COLO 205 colon; 32.2 µM in the test with HCT-15 colon; 34 µM in the test with LOX IMVI melanoma; 88.4 µM in the test with M14 melanoma; 43.4 µM in the test with MOLT-4 leukemia. The TGI in the test on RXF 393 renal was more than 75.9 µM; with SF-268 CNS it was 99 µM; with SNB-19 CNS, more than 100 µM; in the test with SR leukemia, 23.6 µM.

As for `COc1cc(-c2ccc(NC(=O)NC3CC3)c(OC)c2)ccc1NC(=O)NC1CC1`, the GI50 is 6.2 µM in the test on CAKI-1 renal; 7.67 µM with COLO 205 colon; 1.1 µM in the test on HCT-15 colon; 3.15 µM in the test with LOX IMVI melanoma; more than 100 µM with M14 melanoma; 3.33 µM with MOLT-4 leukemia. Besides, the GI50 was 1.16 µM with RXF 393 renal, 8.21 µM in the test with SF-268 CNS, 8.87 µM in the test on SNB-19 CNS and 0.446 µM in the test on SR leukemia. Besides, the TGI in the test with CAKI-1 renal is more than 60.7 µM; in the test with COLO 205 colon it was more than 100 µM; with HCT-15 colon, more than 100 µM; in the test with LOX IMVI melanoma it was more than 83.8 µM; with M14 melanoma, more than 100 µM; in the test with MOLT-4 leukemia, more than 100 µM. Also, the TGI in the test on RXF 393 renal was 4.42 µM; with SF-268 CNS it was more than 100 µM; in the test on SNB-19 CNS, more than 100 µM.

`CCCN1C(=O)/C(=C/c2ccc(O)cc2)SC1=Nc1ccc(OC)cc1`: the GI50 in the test with CAKI-1 renal was 12.9 µM; in the test on COLO 205 colon, 36.6 µM; in the test with HCT-15 colon it was 12.6 µM; in the test with LOX IMVI melanoma, 15.4 µM; in the test with M14 melanoma it was 26.8 µM; in the test with MOLT-4 leukemia, 10.7 µM. The GI50 with RXF 393 renal was 11.7 µM; in the test with SF-268 CNS, 17.3 µM; in the test on SNB-19 CNS, 19.6 µM; with SR leukemia it was 10.4 µM. In addition, the TGI with CAKI-1 renal is 27.8 µM; in the test on COLO 205 colon, more than 100 µM; in the test with HCT-15 colon, 25.7 µM; in the test on LOX IMVI melanoma it was 30.8 µM; in the test on M14 melanoma, 60.6 µM; in the test on MOLT-4 leukemia, more than 100 µM. For the same molecule, the TGI in the test with RXF 393 renal was 28.3 µM; in the test on SF-268 CNS, 74.9 µM; in the test on SNB-19 CNS it was 45.5 µM; in the test on SR leukemia, more than 100 µM.

Turning to `CO[C@@H]1[C@H]2[C@@H](C)c3ccoc3C[C@@H]2[C@@]2(C)CC[C@H](OC(=O)c3ccccc3)[C@](C)(C(=O)O)[C@]2(O)[C@@H]1OC(=O)c1ccccc1`, the GI50 was 7.46 µM with CAKI-1 renal; 7.34 µM with COLO 205 colon; 7.93 µM in the test with HCT-15 colon; 6.73 µM in the test with LOX IMVI melanoma; 8.53 µM in the test with M14 melanoma; 9.67 µM in the test on MOLT-4 leukemia. For the same molecule, the GI50 with RXF 393 renal was 12.2 µM; in the test on SF-268 CNS, 21.2 µM; in the test with SNB-19 CNS, 16.1 µM; in the test with SR leukemia, 10.9 µM. In addition, the TGI with CAKI-1 renal came to 15.6 µM; in the test on COLO 205 colon, 15.2 µM; in the test on HCT-15 colon, 16.3 µM; with LOX IMVI melanoma, 13.6 µM; in the test with M14 melanoma it was 24.4 µM; with MOLT-4 leukemia, 38.4 µM. For the same molecule, the TGI was 39 µM in the test with RXF 393 renal, more than 50 µM in the test on SF-268 CNS, more than 50 µM with SNB-19 CNS and more than 50 µM in the test with SR leukemia.

As for `COc1cc(CC(C(=O)O)C(=O)O)c(OC)cc1CC(C(=O)O)C(=O)O`, the TGI with CAKI-1 renal, with COLO 205 colon, in the test with HCT-15 colon, in the test on LOX IMVI melanoma, in the test on M14 melanoma and in the test on MOLT-4 leukemia was more than 100 µM in each case. The TGI with RXF 393 renal, in the test on SF-268 CNS, with SNB-19 CNS and in the test with SR leukemia was more than 100 µM in each case.

For `O=c1c(-c2ccc(O)cc2)coc2cc(OC3OC(CO)C(O)C(O)C3O)cc(O)c12` (stereo not drawn), the GI50 with CAKI-1 renal was more than 10 µM; with COLO 205 colon, more than 100 µM; in the test with M14 melanoma, more than 100 µM; with MOLT-4 leukemia, more than 10 µM; in the test on RXF 393 renal, more than 10 µM; in the test on SF-268 CNS, more than 10 µM. For the same molecule, in the test with SR leukemia, the GI50 is more than 10 µM. For the same molecule, the TGI with CAKI-1 renal, with COLO 205 colon, in the test with HCT-15 colon, in the test with LOX IMVI melanoma, in the test on M14 melanoma and in the test with MOLT-4 leukemia was more than 100 µM throughout. The TGI in the test with RXF 393 renal, in the test with SF-268 CNS, with SNB-19 CNS and in the test on SR leukemia was more than 100 µM in each case.
